Laboratory results taken from patent publication US20220184092A1, “ANTI-VIRAL ACTIVITY OF VPS34 INHIBITORS” (Deciphera Pharmaceuticals, LLC, priority 2020, published 2022).
Like-named read-outs stand apart in the source and are kept apart here.

Columns and labels:
in vitro = format: cell-based; conditions: African green monkey
Description: (§1) Compound cytotoxicity (CC50) is assessed in a BSL-2 counter screen as follows: Host cells in media are added in 25 μl aliquots (4000 cells/well) to each well of assay ready plates prepared with test compounds as above. […] DMSO is maintained at a constant concentration for all wells (0.3%) as dictated by the dilution factor of stock test compound concentrations. After incubating plates at 37° C./5% CO2 and 90% humidity for 72 hours, 30 μl Cell Titer-Glo (Promega) is added to each well. Luminescence is read using a BMG PHERAstar plate reader following incubation at room temperature for 10 minutes to measure cell viability.

Vero E6 cells = assay: in vitro; format: cell-based; conditions: African green monkey, 72 h
Description: as §1

SARS-CoV-2 = assay: microbe, parasite or virus in culture; format: cell-based; conditions: Severe acute respiratory syndrome coronavirus 2, A549, 48 h; read-out: IC50 for inhibition of SARS CoV-2 mediated cell killing
SARS CoV-2 = SARS CoV-2 CPE assay for antiviral activity in Vero E6 host cells; format: cell-based, coronavirus USA_WA1/2020 SARS CoV-2; conditions: read-out: IC50 for inhibition of SARS CoV-2 mediated cell killing
[1] = Vero C1008, Vero E6 cells, CPE assay, 72 hours, 10-point dose response, high concentration 15 μM

| SMILES | CC50 at 72 h (in vitro) | CC50 (Vero E6 cells) | IC50 (SARS-CoV-2) | IC50 (SARS CoV-2; [1]) | IC50 (SARS CoV-2; Vero C1008, 72 h) |
| --- | --- | --- | --- | --- | --- |
| C[C@@H]1COCCN1c1cc(-c2ccccc2C(F)(F)F)[nH]c(=O)c1 [Compound 1] | > 30 µM | > 30 µM | 2.05 µM | 3.91 µM |  |
| C[C@@H]1COCCN1c1cc(-c2ccccc2Cl)[nH]c(=O)c1 [Compound 2] | > 30 µM | > 30 µM | 0.83 µM | 2.76 µM |  |
| Cc1cscc1-c1cc(N2CCOC[C@H]2C)cc(=O)[nH]1 [Compound 3] | > 10 µM | > 10 µM | 6.39 µM |  | > 10 µM |
